How the values were obtained:
[1] = tested on: LNCaP cells; experiment: Cell cycle analysis (propidium iodide, flow cytometry), LNCaP; format: cell-based, human
Description: Cell cycle analysis was performed after staining the cells with propidium iodide (PI). For long term bergamottin treatment (96 hrs.) cells were plated at 25–30% confluence and for short term bergamottin treatment (48 hrs.) they were plated at 30–35% confluence. After completion of specified treatment the cells were trypsinized washed with PBS and fixed in 70% ethanol and then stained with PI in nicoletti buffer (propidium iodide 50 μg/ml, 0.1% sodium citrate, 0.1% triton X-100, RNase 1 mg/ml, in DPBS). Cells were analyzed using C6 Accuri flow cytometer (Becton Dickinson, Mountainview, CA). FlowJo software was used to gate and remove the debris (gate on SSC and FSC) and aggregates (FL2 A and FL2H) from the analysis. Watson pragmatic and Dean-Jett -Fox methods was used to assign percentage frequencies to cells present in the different cell cycle stages.

[2] = tested on: nuclear AR in LNCaP cells; experiment: Cell fractionation, AR nuclear localization, LNCaP; format: cell-based, human; conditions: bergamottin 10μM, with and without DHT induction
Description: Cells were plated at 25–30% confluence when maintained in complete media. When the cells required DHT tretment and media replacement to charcoal stripped serum media (CSSM) they were plated at 35–40% confluence. Bergamottin is dissolved in DMSO (vehicle control) and the amount of DMSO at each treatment group was kept constant. After the completion of the treatment cells were washed in phosphate buffer (PBS) containing 2mMEDTA and 2mM EGTA and lysed in RIPA buffer (50 mM TRIS, 150 mM NaCl, 1% NP40, 0.5% sodium deoxycholate, 0.1% SDS, 2mM EDTA, 2mM EGTA) supplemented with protease and phosphatase inhibitors for total protein isolation. Protein estimation was performed using micro BCA assay and equal protein amponts were loaded on SDS-PAGE gels for western analysis. GAPDH was used as an internal control for total protein. Infrared fluorescent-labeled secondary antibodies were used for detection using Odyssey CLx. The bands were quantified using Odyssey software, which calculates pixel density and automatically takes an area adjacent to each band for background corrections.
Nuclear and cytoplasmic cell fractionation was prepared using NE-PER Nuclear and cytoplasmic extraction kit from Thermo Scientific (Cat no.78833) and manufacturer’s instructions were followed. […]

[3] = tested on: RWPE1 cells (non transformed prostate epithelium); experiment: MTT growth assay, RWPE1; format: cell-based, human
Description: (§1) Growth of the cells was measured using a MTT assay. Cells were plated (2000 cells/ 96 well or 13,000 cells/ 24 well) for 48 hours then treated with bergamottin for 4 days (96 hours) and then incubated with MTT (3-(4,5-Dimethylthiazol- 2-yl)-2,5-Diphenyltetrazolium bromide) (4 mg/ml) for 2 h. at 37°C. DMSO (vehicle control for bergamottin) levels were compensated in each bergamottin treatment group. Cells were centrifuged at 2000 g for 10 min and the supernatant was discarded. The cell pellet was dissolved in 100/500 μl of DMSO depending on the well size. A plate reader was used to read the absorption at 540 nm. Experiments were performed in octuplet/quadruplet and repeated at least three times.

[4] = tested on: AR nuclear localization in LNCaP cells; experiment: Confocal microscopy of AR nuclear localization, LNCaP; format: cell-based, human; conditions: bergamottin 10μM, versus DMSO
Description: Cells were seeded into 35 mm Glass bottom dish (Cellvis catalog# D35C4-20-1.5-N) in complete media; media was changed to CSSM prior to DHT treatment. The cells were fixed in 4% paraformaldehyde for 20 minutes and permeabilized using permeabilizing buffer (0.2% Tween 20 in PBS) for 5 minutes. Cells were blocked using 10% goat serum diluted in permeabilizing buffer with 1% BSA for 15 minutes. Primary antibodies were diluted at 1:100 in staining buffer (1% BSA in PBS) and incubated for 2 hours at room temperature. Cells were washed three times (5 minutes each) in PBS. Secondary antibodies, TRITC-conjugated Donkey Anti-rabbit (711-025-152) was from Jackson immuno research, West Grove, PA was diluted at 1:100 in staining buffer and incubated for 60 minutes at room temperature. Cells were washed three times (5 minutes) in PBS and stained with 1 μg/mL DAPI (4’, 6-diamidino-2-phenylindole) in PBS for 5 minutes at room temperature. The cells were stored in PBS at 4°C until imaging was completed.
Cells were imaged using confocal laser scanning microscopy on a Nikon A1R using a galvano scanner and a 60× Apo-TIRF oil immersion objective. NIS Elements software form Nikon was used for recording the data.

[5] = tested on: LNCaP cells; experiment: MTT growth assay, LNCaP; format: cell-based; conditions: Homo sapiens
Description: as §1

[6] = tested on: MDAPCa2b cells; experiment: Clonogenic assay, MDAPCa2b; format: cell-based, human; conditions: 5μM and 10μM, 3 weeks
Description: For clonogenic assay, cells were plated in 6 well plates (10,000 cells) for 48 h and then treated with indicated amounts of bergamottin and vehicle control (DMSO). After 3 weeks, the colonies were fixed, stained (0.75% crystal violet, 50% ethanol and 1.75% formaldehyde) and counted. The assay was repeated three times.

IC50 ([5]; treatment 96 hours (methods) / 120 hours (Fig 1 legend), read-out: bergamottin concentration giving 50% growth reduction): 2.4 µM
SMILES: CC(C)=CCC/C(C)=C/COc1c2ccoc2cc2oc(=O)ccc12 [bergamottin]
G1 frequency, Dean-Jett-Fox ([1]; Berg 5μM, 96 hrs.): 90.81 ±1.7%
G2 frequency, Dean-Jett-Fox ([1]; Berg 5μM, 96 hrs.): 10.53 ±1.0%
G2 frequency, Watson Pragmatic ([1]; Berg 5μM, 96 hrs.): 8.59 ±3.0%
S frequency, Dean-Jett-Fox ([1]; Berg 5μM, 96 hrs.): -0.3 ±2.3%
S frequency, Watson Pragmatic ([1]; Berg 5μM, 96 hrs.): 0.32±4.3%
G1 frequency, Dean-Jett-Fox ([1]; Berg 10μM, 96 hrs.): 95.1 ±3.4%
G2 frequency, Dean-Jett-Fox ([1]; Berg 10μM, 96 hrs.): 0.22 ±0.4%
G2 frequency, Watson Pragmatic ([1]; Berg 10μM, 96 hrs.): 10.07 ±0.9%
S frequency, Dean-Jett-Fox ([1]; Berg 10μM, 96 hrs.): -0.03 ±1.1%
S frequency, Watson Pragmatic ([1]; Berg 10μM, 96 hrs.): -1.17 ±4.5%
G1 frequency, Dean-Jett-Fox ([1]; Berg 20μM, 48 hrs.): 86.7 ±2.3%
G2 frequency, Dean-Jett-Fox ([1]; Berg 20μM, 48 hrs.): 15.3 ±1.0%
G2 frequency, Watson Pragmatic ([1]; Berg 20μM, 48 hrs.): 13.4 ±4.3%
S frequency, Dean-Jett-Fox ([1]; Berg 20μM, 48 hrs.): -9.8 ±3.0%
S frequency, Watson Pragmatic ([1]; Berg 20μM, 48 hrs.): 4.8 ±3.5%
G1 frequency, Dean-Jett-Fox ([1]; Berg 30μM, 48 hrs.): 96.2 ±3.6%
G2 frequency, Dean-Jett-Fox ([1]; Berg 30μM, 48 hrs.): 7.7 ±0.9%
G2 frequency, Watson Pragmatic ([1]; Berg 30μM, 48 hrs.): 6.3 ±2.3%
S frequency, Dean-Jett-Fox ([1]; Berg 30μM, 48 hrs.): -8.4 ±4.5%
S frequency, Watson Pragmatic ([1]; Berg 30μM, 48 hrs.): 3.7 ±2.6%
nuclear translocation of AR (cell fractionation) [2]: inhibited nuclear translocation of AR
inhibition at 10 µM ([3]; Homo sapiens, RWPE-1, RWPE1, 10μM): 60%
effect on growth at lower concentration ([3]; RWPE1, lower concentration): does not effect growth
active AR migration to the nucleus with DHT induction (confocal) [4]: significantly reduced
inhibition at 10 µM ([5]; 10μM): 60%
number of colonies [6]: significantly reduced the number of colonies

From paper PMC8476002, “Bergamottin a CYP3A inhibitor found in grapefruit juice inhibits prostate cancer cell growth by downregulating androgen receptor signaling and promoting G0/G1 cell cycle block and apoptosis” (PLoS ONE, 2021)
